Measurements taken from ChEMBL document CHEMBL5729315, “Heterocyclylmethylidene derivatives and their use as modulators of mGluR5 receptors” (2022).

Assays:
[1] = target: T1, Metabotropic glutamate receptor 5 (Homo sapiens, UniProt P41594); assay: Fold Shift of Agonist Curve Determination: The PAM potency was evaluated by performing an agonist concentration response curve in the presence of the compounds. The compounds at fixed concentration (0.01 or 0.1 or 1 μM) were applied 10 minutes before the incubation of the agonist (quisqualate or glutamate) dose-response curve. The fold shift was determined as ratio of EC50 agonist curves in presence and in absence of test compound.
T1 sequence (P41594 whole entry): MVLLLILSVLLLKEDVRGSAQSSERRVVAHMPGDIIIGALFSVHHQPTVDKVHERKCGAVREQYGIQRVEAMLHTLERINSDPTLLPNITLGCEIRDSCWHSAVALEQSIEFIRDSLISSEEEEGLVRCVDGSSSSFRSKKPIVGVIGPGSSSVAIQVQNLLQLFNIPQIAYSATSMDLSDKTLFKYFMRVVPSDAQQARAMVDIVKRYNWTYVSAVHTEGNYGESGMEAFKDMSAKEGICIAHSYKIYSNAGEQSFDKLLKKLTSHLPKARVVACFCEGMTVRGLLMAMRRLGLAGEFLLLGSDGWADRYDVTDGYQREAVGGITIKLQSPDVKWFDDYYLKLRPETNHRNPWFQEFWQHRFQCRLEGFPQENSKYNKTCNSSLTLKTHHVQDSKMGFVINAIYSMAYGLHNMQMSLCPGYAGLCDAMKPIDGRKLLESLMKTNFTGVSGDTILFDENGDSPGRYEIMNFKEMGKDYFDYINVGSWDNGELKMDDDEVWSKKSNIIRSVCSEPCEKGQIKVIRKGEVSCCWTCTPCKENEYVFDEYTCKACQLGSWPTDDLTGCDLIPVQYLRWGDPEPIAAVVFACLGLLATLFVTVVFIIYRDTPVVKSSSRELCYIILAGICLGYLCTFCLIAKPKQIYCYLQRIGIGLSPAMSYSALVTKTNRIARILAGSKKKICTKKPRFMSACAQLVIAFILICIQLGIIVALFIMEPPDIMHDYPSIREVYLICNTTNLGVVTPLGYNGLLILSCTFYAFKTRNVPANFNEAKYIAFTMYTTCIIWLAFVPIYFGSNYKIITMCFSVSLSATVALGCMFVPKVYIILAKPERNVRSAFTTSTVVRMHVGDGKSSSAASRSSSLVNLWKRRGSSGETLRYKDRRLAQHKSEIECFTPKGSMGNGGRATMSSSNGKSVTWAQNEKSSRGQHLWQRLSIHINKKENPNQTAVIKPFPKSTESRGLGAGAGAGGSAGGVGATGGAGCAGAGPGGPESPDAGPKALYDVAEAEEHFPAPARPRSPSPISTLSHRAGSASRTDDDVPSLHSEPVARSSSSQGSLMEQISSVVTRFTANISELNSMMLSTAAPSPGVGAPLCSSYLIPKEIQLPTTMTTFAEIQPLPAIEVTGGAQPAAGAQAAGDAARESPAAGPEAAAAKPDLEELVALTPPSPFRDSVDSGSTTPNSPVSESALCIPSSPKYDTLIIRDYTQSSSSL

[2] = target: T1, Metabotropic glutamate receptor 5; assay: Radioligand Binding Assay at Cloned Human mGluR5 Receptor Subtype: Affinity at transmembrane glutamate metabotropic cloned human mGluR5 receptor was evaluated according to the methods of Anderson (Anderson et al., J Pharmacol. Exp. Ther., (2002), Vol. 303(3), pp. 1044-51), with some modifications. Human cloned mGluR5 was obtained by re-suspending CHO T-REx h-mGluR5 cells (50 μg/well) in 20 mM HEPES, 2 mM MgCl2, 2 mM CaCl2, pH 7.4, that then were incubated in a final volume of 1 ml for 60 min at 25° C. with 4 nM [3H]MPEP in the absence or presence of competing drugs. Non-specific binding was determined in the presence of 10 μM MPEP. The incubation was stopped by addition of cold Tris buffer pH 7.4 and rapid filtration through 0.2% polyethyleneimine pretreated Filtermat 1204-401 (Perkin Elmer) filters. The filters were then washed with cold buffer and the radioactivity retained on the filters was counted by liquid scintillation spectrometry (Betaplate 1204 BS-Wallac).

EC50 [1] [nM]	Ki [2] [nM]	SMILES
51.7	2.24	COc1cc(OC)nc(C(=O)N2CC/C(=C\C#Cc3cccc(Cl)c3)C(C)(C)C2)n1
–	26.9	Cc1cccc(C#CC=C2CC(C)(C)NC(C)(C)C2)n1
